Data published in patent publication US20250215012A1, “IKZF2 DEGRADERS AND USES THEREOF” (REGENTS OF THE UNIVERSITY OF MICHIGAN, priority 2022, published 2025).

Target: IKZF2 (Homo sapiens (Human), UniProt Q96SW2+Q9UKS7)
Assay: IKZF2 HiBiT Assay (Jurkat-IKZF2-HiBiT cell line)
Format: cell-based
Details: Jurkat-IKZF2-HiBiT cells, 24 hours; for DC50: read-out: HiBit assay degradation analysis DC50; for Dmax: read-out: HiBit assay degradation analysis Dmax
Summary of the method: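 IKZF2 degradation was assessed as HiBiT luminescence in Jurkat-IKZF2-HiBiT cells, using lytic detection after 24 h of compound treatment at 37 °C, 5% CO2.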

Sequence of IKZF2 (Q9UKS7 whole entry): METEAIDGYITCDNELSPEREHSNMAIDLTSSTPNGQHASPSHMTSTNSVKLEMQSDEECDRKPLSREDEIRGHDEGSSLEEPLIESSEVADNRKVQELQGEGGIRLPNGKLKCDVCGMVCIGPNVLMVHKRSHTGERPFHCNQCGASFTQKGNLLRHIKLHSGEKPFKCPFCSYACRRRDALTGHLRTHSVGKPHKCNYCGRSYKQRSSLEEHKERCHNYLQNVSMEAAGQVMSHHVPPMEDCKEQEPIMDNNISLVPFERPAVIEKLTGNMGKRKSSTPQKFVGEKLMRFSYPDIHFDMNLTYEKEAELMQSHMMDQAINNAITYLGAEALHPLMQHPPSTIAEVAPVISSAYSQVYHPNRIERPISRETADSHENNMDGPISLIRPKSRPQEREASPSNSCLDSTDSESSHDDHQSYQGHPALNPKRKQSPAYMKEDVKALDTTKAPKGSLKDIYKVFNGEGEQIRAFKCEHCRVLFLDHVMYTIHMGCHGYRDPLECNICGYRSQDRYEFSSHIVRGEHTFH
Sequence of IKZF2 (Q96SW2 whole entry): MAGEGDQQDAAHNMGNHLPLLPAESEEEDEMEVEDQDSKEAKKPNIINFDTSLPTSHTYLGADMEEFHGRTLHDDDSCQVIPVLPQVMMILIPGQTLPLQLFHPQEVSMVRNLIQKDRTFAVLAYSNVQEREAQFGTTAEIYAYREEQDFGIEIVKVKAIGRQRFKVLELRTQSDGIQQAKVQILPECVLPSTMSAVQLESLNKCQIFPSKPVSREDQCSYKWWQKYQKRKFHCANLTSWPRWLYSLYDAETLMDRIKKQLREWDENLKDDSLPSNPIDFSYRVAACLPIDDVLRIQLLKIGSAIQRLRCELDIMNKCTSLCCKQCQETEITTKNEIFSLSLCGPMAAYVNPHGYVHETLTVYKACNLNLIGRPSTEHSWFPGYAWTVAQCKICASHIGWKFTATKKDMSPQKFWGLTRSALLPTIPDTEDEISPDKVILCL
Sequence of IKZF2 (Q16531 whole entry partner): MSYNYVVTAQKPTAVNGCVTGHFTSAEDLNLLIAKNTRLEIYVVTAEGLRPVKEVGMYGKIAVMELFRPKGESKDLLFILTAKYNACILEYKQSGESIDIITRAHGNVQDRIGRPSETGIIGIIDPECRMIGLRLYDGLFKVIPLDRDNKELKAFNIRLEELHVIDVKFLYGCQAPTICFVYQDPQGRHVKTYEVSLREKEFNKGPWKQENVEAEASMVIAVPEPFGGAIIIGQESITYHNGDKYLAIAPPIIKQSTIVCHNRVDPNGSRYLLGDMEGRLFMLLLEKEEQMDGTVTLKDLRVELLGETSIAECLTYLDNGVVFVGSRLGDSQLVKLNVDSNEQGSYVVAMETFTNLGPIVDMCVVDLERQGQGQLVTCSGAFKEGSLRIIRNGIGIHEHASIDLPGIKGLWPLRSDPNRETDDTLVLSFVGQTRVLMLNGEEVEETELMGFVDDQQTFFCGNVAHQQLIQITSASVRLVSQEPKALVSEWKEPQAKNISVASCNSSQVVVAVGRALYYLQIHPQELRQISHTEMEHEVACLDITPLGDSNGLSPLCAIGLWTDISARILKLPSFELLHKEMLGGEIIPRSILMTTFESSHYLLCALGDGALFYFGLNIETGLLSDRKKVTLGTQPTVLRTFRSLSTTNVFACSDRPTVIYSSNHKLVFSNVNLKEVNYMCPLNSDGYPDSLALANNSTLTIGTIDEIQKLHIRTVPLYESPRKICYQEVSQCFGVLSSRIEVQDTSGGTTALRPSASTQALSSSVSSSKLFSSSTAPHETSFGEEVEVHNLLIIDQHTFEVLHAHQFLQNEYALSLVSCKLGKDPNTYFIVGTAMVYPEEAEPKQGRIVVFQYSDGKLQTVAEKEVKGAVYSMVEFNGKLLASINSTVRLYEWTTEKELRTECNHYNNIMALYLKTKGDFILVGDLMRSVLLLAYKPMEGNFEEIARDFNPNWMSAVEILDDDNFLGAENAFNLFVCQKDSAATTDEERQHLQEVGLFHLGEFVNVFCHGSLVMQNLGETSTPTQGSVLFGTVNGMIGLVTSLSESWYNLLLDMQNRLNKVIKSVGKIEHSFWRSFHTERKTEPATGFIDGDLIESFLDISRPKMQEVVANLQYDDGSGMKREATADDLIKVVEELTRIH

Row | SMILES | DC50 [nM] | Dmax [%]
1 | O=C1CCC(N2Cc3c(ccc4c3OCC43CCN(Cc4cccc5occc45)CC3)C2=O)C(=O)N1 (stereo not drawn) [Compound A119, 3-(1′-(benzofuran-4-ylmethyl)-6-oxo-6,8-dihydro-2H,7H-spiro[furo[2,3-e]isoindole-3,4′-piperidin]-7-yl)piperidine-2,6-dione] | < 50 | 60 to 80
2 | CC1(C)CCc2cccc(CN3CCC4(CC3)COc3c4ccc4c3CN(C3CCC(=O)NC3=O)C4=O)c2O1 (stereo not drawn) [Compound A327, 3-(1′-((2,2-dimethylchroman-8-yl)methyl)-6-oxo-6,8-dihydro-2H,7H-spiro[furo[2,3-e]isoindole-3,4′-piperidin]-7-yl)piperidine-2,6-dione] | 50 to 200 | 60 to 80
3 | O=C1CCC(N2Cc3c(ccc4c3OCC43CCN(Cc4ccccc4Cl)CC3)C2=O)C(=O)N1 (stereo not drawn) [Compound A214, 3-(1′-(2-chlorobenzyl)-6-oxo-6,8-dihydro-2H,7H-spiro[furo[2,3-e]isoindole-3,4′-piperidin]-7-yl)piperidine-2,6-dione] | 200 to 500 | 40 to 60
4 | O=C1CCC(N2Cc3c(ccc4c3OCC43CCN(Cc4cnn(S(=O)(=O)c5ccc(Cl)cc5)c4)CC3)C2=O)C(=O)N1 [Compound A352, (S)-3-(1′-((1-((4-chlorophenyl)sulfonyl)-1H-pyrazol-4-yl)methyl)-6-oxo-6,8-dihydro-2H,7H-spiro[furo[2,3-e]isoindole-3,4′-piperidin]-7-yl)piperidine-2,6-dione] | 200 to 500 | –
5 | O=C1CCC(N2Cc3c(ccc4c3OCC43CCN(CC4CCCCC4)CC3)C2=O)C(=O)N1 (stereo not drawn) [Compound A7, 3-(1′-(cyclohexylmethyl)-6-oxo-6,8-dihydro-2H,7H-spiro[furo[2,3-e]isoindoline-3,4′-piperidin]-7-yl)piperidine-2,6-dione] | > 500 | < 40
6 | Cn1cc(-c2ccc(CN3CCC4(CC3)COc3c4ccc4c3CN(C3CCC(=O)NC3=O)C4=O)cc2)cn1 (stereo not drawn) [Compound A148, 3-(1′-(4-(1-methyl-1H-pyrazol-4-yl)benzyl)-6-oxo-6,8-dihydro-2H,7H-spiro[furo[2,3-e]isoindole-3,4′-piperidin]-7-yl)piperidine-2,6-dione] | < 50 | 60 to 80
7 | O=C1CCC(N2Cc3c(ccc4c3OCC43CCN(Cc4nn(CC5CCCCC5)c5ccccc45)CC3)C2=O)C(=O)N1 (stereo not drawn) [Compound A329, 3-(1′-((1-(cyclohexylmethyl)-1H-indazol-3-yl)methyl)-6-oxo-6,8-2H,7H-spiro[furo[2,3-e]isoindole-3,4′-piperidin]-7-yl)piperidine-2,6-dione] | 50 to 200 | 60 to 80
8 | CS(=O)(=O)c1ccc(CN2CCC3(CC2)COc2c3ccc3c2CN(C2CCC(=O)NC2=O)C3=O)cc1 (stereo not drawn) [Compound A236, 3-(1′-(4-(methylsulfonyl)benzyl)-6-oxo-6,8-dihydro-2H,7H-spiro[furo[2,3-e]isoindole-3,4′-piperidin]-7-yl)piperidine-2,6-dione] | > 500 | < 40
9 | O=C1CCC(N2Cc3c(ccc4c3OCC43CCN(CC4CCCc5ccccc54)CC3)C2=O)C(=O)N1 (stereo not drawn) [Compound A21, 3-(6-oxo-1′-((1,2,3,4-tetrahydronaphthalen-1-yl)methyl)-6,8-dihydro-2H,7H-spiro[furo[2,3-e]isoindole-3,4′-piperidin]-7-yl)piperidine-2,6-dione] | > 500 | 60 to 80
10 | O=C1CCC(N2Cc3c(ccc4c3OCC43CCN(Cc4cnn(-c5ccccc5)c4)CC3)C2=O)C(=O)N1 (stereo not drawn) [Compound A221, 3-(6-oxo-1′-((1-phenyl-1H-pyrazol-4-yl)methyl)-6,8-dihydro-2H,7H-spiro[furo[2,3-e]isoindole-3,4′-piperidin]-7-yl)piperidine-2,6-dione] | > 500 | 40 to 60
11 | O=C1CC[C@H](N2Cc3c(ccc4c3OCC43CCN(Cc4cccc(-c5cnn(C[C@@H]6CCO6)c5)c4)CC3)C2=O)C(=O)N1 [Compound A274, (S)-3-(1′-(3-(1-(((S)-oxetan-2-yl)methyl)-1H-pyrazol-4-yl)benzyl)-6-oxo-6,8-dihydro-2H,7H-spiro[furo[2,3-e]isoindole-3,4′-piperidin]-7-yl)piperidine-2,6-dione] | 50 to 200 | 60 to 80
12 | COc1ccccc1CN1CCC2(CC1)COc1c2ccc2c1CN(C1CCC(=O)NC1=O)C2=O (stereo not drawn) [Compound A215, 3-(1′-(2-methoxybenzyl)-6-oxo-6,8-dihydro-2H,7H-spiro[furo[2,3-e]isoindole-3,4′-piperidin]-7-yl)piperidine-2,6-dione] | 200 to 500 | 40 to 60
13 | CCc1ccc(CN2CCC3(CC2)COc2c3ccc3c2CN(C2CCC(=O)NC2=O)C3=O)cc1 (stereo not drawn) [Compound A16, 3-(1′-(4-ethylbenzyl)-6-oxo-6,8-dihydro-2H,7H-spiro[furo[2,3-e]isoindole-3,4′-piperidin]-7-yl)piperidine-2,6-dione] | > 500 | < 40
14 | Cn1ncc(-c2cccc(CN3CCC4(CC3)COc3c4ccc4c3CN([C@H]3CCC(=O)NC3=O)C4=O)c2)n1 [Compound A296, (S)-3-(1′-(3-(2-methyl-2H-1,2,3-triazol-4-yl)benzyl)-6-oxo-6,8-dihydro-2H,7H-spiro[furo[2,3-e]isoindole-3,4′-piperidin]-7-yl)piperidine-2,6-dione] | < 50 | 60 to 80
15 | O=C1CCC(N2Cc3c(ccc4c3OCC43CCN(Cc4cccc(-c5cn[nH]c5)c4)CC3)C2=O)C(=O)N1 (stereo not drawn) [Compound A104, 3-(1′-(3-(1H-pyrazol-4-yl)benzyl)-6-oxo-6,8-dihydro-2H,7H-spiro[furo[2,3-e]isoindole-3,4′-piperidin]-7-yl)piperidine-2,6-dione] | < 50 | > 80
16 | O=C1CCC(N2Cc3c(ccc4c3OCC43CCN(Cc4ccc5ncsc5c4)CC3)C2=O)C(=O)N1 (stereo not drawn) [Compound A62, 3-(1′-(benzo[d]thiazol-6-ylmethyl)-6-oxo-6,8-dihydro-2H,7H-spiro[furo[2,3-e]isoindole-3,4′-piperidin]-7-yl)piperidine-2,6-dione] | 200 to 500 | 40 to 60
17 | CC(F)(F)c1ccc(CN2CCC3(CC2)COc2c3ccc3c2CN(C2CCC(=O)NC2=O)C3=O)cc1 (stereo not drawn) [Compound A30, 3-(1′-(4-(1,1-difluoroethyl)benzyl)-6-oxo-6,8-dihydro-2H,7H-spiro[furo[2,3-e]isoindole-3,4′-piperidin]-7-yl)piperidine-2,6-dione] | > 500 | < 40
18 | O=C1CC[C@H](N2Cc3c(ccc4c3OCC43CCN(Cc4cccc(-c5cnn(C(F)(F)F)c5)c4)CC3)C2=O)C(=O)N1 [Compound A282, (S)-3-(6-oxo-1′-(3-(1-(trifluoromethyl)-1H-pyrazol-4-yl)benzyl)-6,8-dihydro-2H,7H-spiro[furo[2,3-e]isoindole-3,4′-piperidin]-7-yl)piperidine-2,6-dione] | < 50 | 60 to 80
19 | O=C1CCC(N2Cc3c(ccc4c3OCC43CCN(Cc4n[nH]c5ccccc45)CC3)C2=O)C(=O)N1 (stereo not drawn) [Compound A227, 3-(1′-((1H-indazol-3-yl)methyl)-6-oxo-6,8-dihydro-2H,7H-spiro[furo[2,3-e]isoindole-3,4′-piperidin]-7-yl)piperidine-2,6-dione] | > 500 | 40 to 60
20 | O=C1CCC(N2Cc3c(ccc4c3OCC43CCN(Cc4cccc5ccncc45)CC3)C2=O)C(=O)N1 (stereo not drawn) [Compound A40, 3-(1′-(isoquinolin-8-ylmethyl)-6-oxo-6,8-dihydro-2H,7H-spiro[furo[2,3-e]isoindole-3,4′-piperidin]-7-yl)piperidine-2,6-dione] | 50 to 200 | 60 to 80
21 | O=C1CCC(N2Cc3c(ccc4c3OCC43CCN(Cc4cccn5nccc45)CC3)C2=O)C(=O)N1 (stereo not drawn) [Compound A58, 3-(6-oxo-1′-(pyrazolo[1,5-a]pyridin-4-ylmethyl)-6,8-dihydro-2H,7H-spiro[furo[2,3-e]isoindole-3,4′-piperidin]-7-yl)piperidine-2,6-dione] | > 500 | 40 to 60
22 | CCn1cc(CN2CCC3(CC2)COc2c3ccc3c2CN(C2CCC(=O)NC2=O)C3=O)cn1 (stereo not drawn) [Compound A229, 3-(1′-((1-ethyl-1H-pyrazol-4-yl)methyl)-6-oxo-6,8-dihydro-2H,7H-spiro[furo[2,3-e]isoindole-3,4′-piperidin]-7-yl)piperidine-2,6-dione] | > 500 | 40 to 60
23 | O=C1CCC(N2Cc3c(ccc4c3OCC43CCN(Cc4cnc(-c5ccccc5)s4)CC3)C2=O)C(=O)N1 (stereo not drawn) [Compound A81, 3-(6-oxo-1′-((2-phenylthiazol-5-yl)methyl)-6,8-dihydro-2H,7H-spiro[furo[2,3-e]isoindole-3,4′-piperidin]-7-yl)piperidine-2,6-dione] | > 500 | < 40
24 | O=C1CC[C@H](N2Cc3c(ccc4c3OCC43CCN(C[C@@H]4C[C@H]4c4ccc(F)cc4)CC3)C2=O)C(=O)N1 [Compound A362, (S)-3-(1′-(((1R,2R)-2-(4-fluorophenyl)cyclopropyl)methyl)-6-oxo-6,8-dihydro-2H,7H-spiro[furo[2,3-e]isoindole-3,4′-piperidin]-7-yl)piperidine-2,6-dione] | > 500 | 40 to 60
25 | O=C1CCC(N2Cc3c(ccc4c3OCC43CCN(Cc4cc(C(F)(F)F)cc5[nH]ccc45)CC3)C2=O)C(=O)N1 (stereo not drawn) [Compound A114, 3-(6-oxo-1′-((6-(trifluoromethyl)-1H-indol-4-yl)methyl)-6,8-dihydro-2H,7H-spiro[furo[2,3-e]isoindole-3,4′-piperidin]-7-yl)piperidine-2,6-dione] | 50 to 200 | 60 to 80
26 | O=C1CCC(N2Cc3c(ccc4c3OCC43CCN(Cc4cnn(CC5CC5)c4)CC3)C2=O)C(=O)N1 (stereo not drawn) [Compound A231, 3-(1′-((1-(cyclopropylmethyl)-1H-pyrazol-4-yl)methyl)-6-oxo-6,8-dihydro-2H,7H-spiro[furo[2,3-e]isoindole-3,4′-piperidin]-7-yl)piperidine-2,6-dione] | 200 to 500 | 60 to 80
